Measurements published in US20230071763A1, “AURISTATIN-RELATED COMPOUNDS, CONJUGATED AURISTATIN-RELATED COMPOUNDS, AND METHODS OF USE THEREOF” (CYTOMX THERAPEUTICS, INC., priority 2020, published 2023).
pKd: −log10 of the molar value.

What was measured:
human CES-1C = molecular target: T1, human CES-1C (Homo sapiens, UniProt P23141); assay: Stability to carboxylesterase, human CES-1C; format: in vitro ADME; conditions: 37° C., in 48 hrs
T1 sequence (P23141 18-566 isoform P23141-3 limits assumed): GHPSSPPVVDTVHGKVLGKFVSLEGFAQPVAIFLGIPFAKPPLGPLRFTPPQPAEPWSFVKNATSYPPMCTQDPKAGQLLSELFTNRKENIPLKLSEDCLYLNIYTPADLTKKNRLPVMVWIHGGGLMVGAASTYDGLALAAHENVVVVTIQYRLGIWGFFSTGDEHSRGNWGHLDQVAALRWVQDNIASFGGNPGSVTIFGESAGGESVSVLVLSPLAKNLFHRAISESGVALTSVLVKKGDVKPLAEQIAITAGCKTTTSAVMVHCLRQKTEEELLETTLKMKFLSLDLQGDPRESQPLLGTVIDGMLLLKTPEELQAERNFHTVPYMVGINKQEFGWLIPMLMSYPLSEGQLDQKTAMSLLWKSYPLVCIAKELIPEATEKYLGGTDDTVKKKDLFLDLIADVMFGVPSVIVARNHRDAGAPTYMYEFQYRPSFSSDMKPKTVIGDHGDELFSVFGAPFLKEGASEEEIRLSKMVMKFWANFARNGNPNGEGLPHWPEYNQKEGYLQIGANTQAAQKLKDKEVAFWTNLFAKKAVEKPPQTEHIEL
Protocol: (§1) In a further exemplary study, the stability of the substrates were determined in the presence of […] different carboxylesterases (human or mouse CES-1 and CES-1C). In this study, the enzymes were activated prior to substrate introduction and then incubated with the substrate at 37° C. over a 48 h time period.

mouse CES-1C = molecular target: T2, mouse CES-1C (Mus musculus, UniProt P23953); assay: Stability to carboxylesterase, mouse CES-1C; format: in vitro ADME; conditions: 37° C., in 48 hrs
T2 sequence (P23953 19-554): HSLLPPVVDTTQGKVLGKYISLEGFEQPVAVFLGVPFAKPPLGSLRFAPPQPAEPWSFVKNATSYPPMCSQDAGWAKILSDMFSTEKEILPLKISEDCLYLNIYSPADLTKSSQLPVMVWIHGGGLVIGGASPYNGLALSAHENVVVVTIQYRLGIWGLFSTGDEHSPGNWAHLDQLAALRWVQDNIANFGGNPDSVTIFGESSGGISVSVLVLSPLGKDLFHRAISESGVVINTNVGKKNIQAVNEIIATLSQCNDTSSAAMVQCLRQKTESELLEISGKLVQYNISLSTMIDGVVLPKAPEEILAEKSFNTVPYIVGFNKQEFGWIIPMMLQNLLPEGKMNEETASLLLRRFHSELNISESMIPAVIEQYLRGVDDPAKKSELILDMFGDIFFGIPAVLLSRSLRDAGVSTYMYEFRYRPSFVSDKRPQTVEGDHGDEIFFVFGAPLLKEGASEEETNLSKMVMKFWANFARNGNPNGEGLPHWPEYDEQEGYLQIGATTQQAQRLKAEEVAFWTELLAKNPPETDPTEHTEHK
Protocol: as §1

SW780 cells = assay: In vitro cytotoxicity (Presto Blue), SW780; format: cell-based; conditions: 5 days treatment, percent survival
Protocol: (§2) In this assay, the test cells were plated and grown to an appropriate cell density (e.g., 1500 cells/well (50 μL per well) for SW780 cells). The cells were treated with the drug (MMATH or MMAE (monomethylauristatin E)) at concentrations ranging from 10 μM to 10^−4 nM in triplicate for 5 days. On the day 6 endpoint, the cells were incubated with 20 μL of Presto Blue @ 37 C for 2 hr and the signal was read on a Biotek synergy H4 plate reader. After media background was subtracted, the percent survival was calculated and plotted to determine the EC50, as shown in the exemplary results of Table 1.

SKOV3 = assay: In vitro cytotoxicity (Presto Blue), SKOV3; format: cell-based; conditions: 5 days treatment, percent survival
Protocol: as §2

HCC1954 = assay: In vitro cytotoxicity (Presto Blue), HCC1954; format: cell-based; conditions: 5 days treatment, percent survival
Protocol: as §2

PC3 = assay: In vitro cytotoxicity (Presto Blue), PC3; format: cell-based; conditions: 5 days treatment, percent survival
Protocol: as §2

tubulin = assay: Binding to tubulin

Row | SMILES | cleavage by human CES-1C (human CES-1C) | cleavage by mouse CES-1C (mouse CES-1C) | EC50 (SW780 cells; first SW780 column) | EC50 (SW780 cells; second SW780 column) | EC50 (SKOV3) | EC50 (HCC1954) | EC50 (PC3) | pKd (tubulin) | EC50 (SW780 cells; Homo sapiens, SW780, 120 h, first SW780 column) | EC50 (SW780 cells; Homo sapiens, SW780, 120 h, second SW780 column) | EC50 (SKOV3; Homo sapiens, SK-OV-3, 120 h) | EC50 (HCC1954; Homo sapiens, HCC1954, 120 h) | EC50 (PC3; Homo sapiens, PC-3, 120 h)
1 | CC[C@H](C)C([C@@H](CC(=O)N1CCC[C@H]1[C@H](OC)[C@@H](C)C(=O)N[C@H](C)[C@@H](O)c1ccccc1)OC)N(C)C(=O)[C@@H](NC(=O)[C@@H](NC)C(C)C)C(C)C (some centres unmarked) [Cys-vc-MMAE] | completely cleaved | completely cleaved | – | – | – | – | – | – | – | – | – | – | –
2 | CC[C@H](C)[C@@H]([C@@H](CC(=O)N1CCC[C@H]1[C@H](OC)[C@@H](C)C(=O)N[C@H](C)[C@@H](O)c1ccccc1)OC)N(C)C(=O)[C@@H](NC(=O)[C@@H](NC)C(C)C)C(C)C [MMAE, monomethylauristatin E] | – | – | 0.31 nM | 0.22 nM | 0.19 nM | 0.03 nM | 0.24 nM | 7.16 | – | – | – | – | –
3 | CCC(C)C(C(CC(=O)N1CCCC1C(OC)C(C)C(=O)NC(CO)Cc1cccs1)OC)N(C)C(=O)C(NC(=O)C(NC)C(C)C)C(C)C (centres unmarked) [MMATH] | – | – | – | – | – | – | – | 6.69 | 0.38 nM | 0.26 nM | 0.2 nM | 0.03 nM | 0.24 nM
